Experiments:
[1] = test system: mice; experiment: Elevated plus-maze test of anxiolytic effect; assay type: in vivo, mouse; details: for Minimum Effective Dose (anxiolytic effect): IP
Experimental: In the present invention, the anxiolytic effects can be evaluated by the elevated plus-maze test, which has been developed as a method for evaluating anxiety-related behaviors to screen anxiolytic drugs and has been widely used (FIG. 1). Specifically, the test is performed as follows: a candidate substance for an anxiolytic drug is orally or intraperitoneally administered to a mouse, the mouse is placed in an elevated plus-maze 30 minutes after the administration, and the potency of the anxiolytic effect is evaluated based on the number of entries into the open arms and the change in the time spent on the open arms.
The elevated plus-maze includes two open arms (25×5 cm) and two closed arms (25×5×15 cm), which were joined to a central platform 50 cm high above the floor (see FIG. 1). Because the closed arms were surrounded by barriers, a mouse could safely walk in the closed arms in spite of the elevated position. On the other hand, because the open arms were not surrounded by barriers, a mouse walking along the open arms would feel anxious that it might fall from the elevated position. Therefore, the more time the mouse spent in the open arms, or the greater the number of entries into the open arms, the less anxious the mouse would feel. Thus, the anxiolytic activity is determined based on these indices.
A mouse was placed on a portion of the central platform facing one of the open arms, and the test was started. During the 5-minute test time, the cumulative time spent in the open arms (abbr.: time in open arms), the number of visits to the open arms (abbr.: visits to open arms), and the total number of visits to the either arms (abbr.: total visits) were recorded. The percentage of the time spent in the open arms and the percentage of the number of visits to the open arms were calculated as indices of anxiety.
The data obtained from the elevated plus-maze test were represented as the mean values±SEM. The data were analyzed by one-way ANOVA, followed by the Fisher test for multiple comparisons.
Each of VYLPR (SEQ ID NO:1) (Example 1), YLPR (SEQ ID NO:2) (Example 2), and LPR (SEQ ID NO:3) (Example 3) dissolved in physiological saline was administered intraperitoneally (IP) or orally (PO) to mice (n=3 to 14) in the amount shown in each figure before the mice were placed on the central portion of the elevated plus-maze. The percentage of the time spent in the open arms, the percentage of the number of visits to the open arms, and the total number of visits to the both arms (total visits) were compared between groups administered each peptide and the control group (0 mg/kg). The results are shown in FIGS. 2 to 5, FIGS. 7 and 8, and Table 1.
Trypsin-digested ovalbumin was used as an active ingredient and was administered intraperitoneally and orally to test the anxiolytic effects using the open arms in the same manner as in Examples 1 to 3.
An aqueous solution of ovalbumin (20 mg/ml) was heated (10-min boiling), and bovine trypsin (E:S=1:100) was added to carry out a reaction at 37° C. for 5 hours. As a result, VYLPR (SEQ ID NO:1) was produced at a high efficiency of 44 mol %. When the aqueous solution of ovalbumin was not pre-heated, VYLPR (SEQ ID NO:1) was below the detection limit and was hardly produced even with the trypsin treatment. TPCK-treated Trypsin from bovine pancreas (Sigma) was used as the bovine trypsin. […]

[2] = test system: mice; experiment: Elevated plus-maze test with peptide given in combination with an inhibitor or receptor antagonist; assay type: in vivo, mouse
Experimental: An anxiolytic peptide of the invention was administered in combination with the inhibitor or one of the antagonists for various receptors as follows, and tests were conducted in the same manner as in Example 1 in order to identify the effect of each antagonist on the anxiolytic activity of the peptide of the present invention, i.e., to identify the receptors on which the peptide of the invention acts.
COX inhibitor: Indomethacin, 10 mg/kg
DP1-R antagonist: BWA868C, 60 μg/kg

Substance	Minimum Effective Dose (anxiolytic effect) [1] [mg/kg]	anxiolytic effect ([1]; intraperitoneal administration)	anxiolytic effect ([1]; oral administration)	anxiolytic effect in the presence of prostaglandin DP1 receptor antagonist ([2]; BWA868C 60 μg/kg, FIG. 10A)	anxiolytic effect in the presence of adenosine A2A receptor antagonist ([2]; SCH58261 0.1 mg/kg, FIG. 10B)
Leu-Pro-Arg [LPR]	0.3				
Tyr-Leu-Pro-Arg (YLPR; Designed peptide)	0.3				
Undigested ovalbumin: Undigested ovalbumin (with and without heat treatment) used as the control for the trypsin digest [reference compound]		did not show anxiolytic effects	did not show anxiolytic effects		
Val-Tyr-Leu-Pro-Arg (VYLPR; Designed peptide)	0.3			inhibited	inhibited
